# Counter-ions that a name gives are not always drawn. Like-named read-outs stand apart in the source and are kept apart here.
# Legend:
# MDBK line = assay: MTT Cell Proliferation Assay, MDBK cells; type: cell-based, bovine
# From the text: (§1) The following example describes the MTT Cell Proliferation Assay.
# (§2) The MTT Cell Proliferation Assay is a colorimetric assay system that measures the reduction of the tetrazolium salt MTT (3-(4,5-dimethylthiazol-2-yl)-2,5-diphenyltetrazolium bromide) into insoluble formazan crystals, produced by the mitochondria of viable cells. […] The color can then be quantified by spectrophotometric means. Among the applications for the method are drug sensitivity, cytotoxicity, response to growth factors, and cell activation. The reduction of tetrazolium salts is now recognized as a safe, accurate alternative to radiometric testing.
# (§3) Two replicates on each cell plate and 2 duplicate plates gave 4 individual replicates of each concentration, in each cell line. Concentrations were diluted in 100% DMSO from 25 mM stocks.
# (§4) Twelve 96 well plates of each cell line were plated. Plating was done by dislodging cells as in passage protocol, counting on a hemocytometer, re-suspending in standard growth media, and plating using a multichannel pippetor.
# (§5) 16 μl of 25 mM stock+34 μl DMSO=8 mM starting concentrations, and serial diluted as with test compounds in same plate. […] Two replicates of each concentrations was run on each cell plate. All compound addition and cell treatments were done using aseptic technique under a laminar flow aseptic hood.
# (§6) Control: 0.5% DMSO in treatment media was used as the control.
# (§7) MTT dye (Thiazolyl Blue Tetrazolium Bromide, Sigma cat #M5655) stock was prepared in bulk and stored at 4° C. for use: 5 mgs/ml sterile PDS, shielded from light. 4 ul of this stock per 100 uls treatment media per well was used.
# (§8) Plates were incubated overnight prior to treatment, with treatment day=Day 0. Compound treatments were prepared prior to washing cells to minimize time cells were dry at room temperature after final aspiration. Compounds were diluted in 100% DMSO in 96 well polypropylene plates: 40 μl 25 mM stock+10 μl DMSO=20 mM; 20 μl of 20 mM+30 μl DMSO=8 mM; 20 μl of 8 mM+30 μl DMSO=3.2 mM; 20 μl of 3.2 mM+30 μl DMSO=1.3 mM; 20 μl of 1.3 mM+30 μl DMSO=0.51 mM.
# (§9) 5.0 μl/ml were added to treatment media, in sterile, 2.2 ml deep well plates=0.5% dmso final. Ten μl of each dmso concentration was added to 2.0 ml of treatment media and then mixed using a 1200 μl multichannel pipettor. Cell plates were treated from the deep well plates. Treatment media was standard growth media containing 0.5% FBS and standard additions. This reduced FBS concentration allowed for a slower growth rate in cells.
# (§10) Media was aspirated from cell plates, and washed with 200 μl/well sterile PBS. Aspirated PBS wash, and cell plates were treated with 200 μl of compound/treatment media per well, and incubated at 37° C., 5% CO2 for 3 days.
# (§11) Prior to harvesting, visual observations were made under an inverted microscope. Plates were harvested by: aspirating the growth media; adding back MTT dye/100 μl treatment media; and incubating plates at 37° C. for 1 hour. MTT dye was aspirated. 100 μl/well dmso was added, and then shaken on a Bellco plate shaker for 5 minutes, at 4.5 setting.
# (§12) Plates were read in a Tecan Sunrize UV plate reader, at 560 nm. Settings: Read mode, Outside Normal 2 sec; Shake settle time 3 sec. Data is reported as % inhibition, calculated for individual plates using control values from that plate.
# EGFR = target: T1, EGFR (Homo sapiens, UniProt P00533); assay: EGFR in-cell Western (ICW) screening protocol (EGFR inhibition assay); type: cell-based; parameters: ICW 1 / ICW 2 / ICW Avg: unit not given here; conditions: for ICW Avg / ICW 1 / ICW 2: ICW assay; for ICW Avg: average of runs 1 and 2; for ICW 1: run 1; for ICW 2: run 2; for ICW assay: Table 10; for ICW assay / ICW Screen: % Inhibition of EGF dependent EGFR phosphorylation in A431 cells, compound 125 μM in assay; for ICW Screen: Table 11
# T1 construct: host or cells: A431
# Summary of the method: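 Serum-starved A431 cells (2 h) were pretreated with compound for 4 h at 37° C, then stimulated with EGF (10 ng/ml final, or 6.6 or 12.5 ng/ml in some runs) for 10 min. After formaldehyde fixation, phospho-EGFR (Tyr1173, or Tyr1045 in some runs) and total EGFR were detected by in-cell Western immunostaining.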
# [1] = system: epithelial carcinoma A431 cell line; assay: MTT Cell Proliferation Assay, A431 cells; type: cell-based; conditions: for MTT Assay IC50(A431/MDBK): ratio in parentheses: ratio MDBK IC50 / A431 IC50 (selectivity)
# From the text: as §1, §2, §3, §4, §5, §6, §7, §8, §9, §10, §11, §12
# [2] = Bos taurus, MDBK, second value of 'a/b (c)', taken as MDBK cells, read-out: MTT Screen, second value of cell
# [3] = Homo sapiens, A-431, first value of 'a/b (c)', taken as A431 cells, read-out: MTT Screen, first value of cell
# [4] = Bos taurus, MDBK, MDBK cells, second value of cell, read-out: MTT Assay IC50(A431/MDBK): MDBK
# [5] = Homo sapiens, A-431, A431 cells, first value of cell, read-out: MTT Assay IC50(A431/MDBK): A431
# [6] = Bos taurus, MDBK, 72 h, Table 10, second of x/y(ratio): MDBK, three day treatment, unit not printed (doses in μM), read-out: MTT assay (second value)
# [7] = Homo sapiens, A-431, 72 h, Table 10, first of x/y(ratio): A431, three day treatment, unit not printed (doses in μM), read-out: MTT assay (first value)
# [8] = MDBK cells, second value of cell, read-out: MTT Assay IC50(A431/MDBK): MDBK
# [9] = A431 cells, first value of cell, read-out: MTT Assay IC50(A431/MDBK): A431
# T1 sequence (P00533 25-1210): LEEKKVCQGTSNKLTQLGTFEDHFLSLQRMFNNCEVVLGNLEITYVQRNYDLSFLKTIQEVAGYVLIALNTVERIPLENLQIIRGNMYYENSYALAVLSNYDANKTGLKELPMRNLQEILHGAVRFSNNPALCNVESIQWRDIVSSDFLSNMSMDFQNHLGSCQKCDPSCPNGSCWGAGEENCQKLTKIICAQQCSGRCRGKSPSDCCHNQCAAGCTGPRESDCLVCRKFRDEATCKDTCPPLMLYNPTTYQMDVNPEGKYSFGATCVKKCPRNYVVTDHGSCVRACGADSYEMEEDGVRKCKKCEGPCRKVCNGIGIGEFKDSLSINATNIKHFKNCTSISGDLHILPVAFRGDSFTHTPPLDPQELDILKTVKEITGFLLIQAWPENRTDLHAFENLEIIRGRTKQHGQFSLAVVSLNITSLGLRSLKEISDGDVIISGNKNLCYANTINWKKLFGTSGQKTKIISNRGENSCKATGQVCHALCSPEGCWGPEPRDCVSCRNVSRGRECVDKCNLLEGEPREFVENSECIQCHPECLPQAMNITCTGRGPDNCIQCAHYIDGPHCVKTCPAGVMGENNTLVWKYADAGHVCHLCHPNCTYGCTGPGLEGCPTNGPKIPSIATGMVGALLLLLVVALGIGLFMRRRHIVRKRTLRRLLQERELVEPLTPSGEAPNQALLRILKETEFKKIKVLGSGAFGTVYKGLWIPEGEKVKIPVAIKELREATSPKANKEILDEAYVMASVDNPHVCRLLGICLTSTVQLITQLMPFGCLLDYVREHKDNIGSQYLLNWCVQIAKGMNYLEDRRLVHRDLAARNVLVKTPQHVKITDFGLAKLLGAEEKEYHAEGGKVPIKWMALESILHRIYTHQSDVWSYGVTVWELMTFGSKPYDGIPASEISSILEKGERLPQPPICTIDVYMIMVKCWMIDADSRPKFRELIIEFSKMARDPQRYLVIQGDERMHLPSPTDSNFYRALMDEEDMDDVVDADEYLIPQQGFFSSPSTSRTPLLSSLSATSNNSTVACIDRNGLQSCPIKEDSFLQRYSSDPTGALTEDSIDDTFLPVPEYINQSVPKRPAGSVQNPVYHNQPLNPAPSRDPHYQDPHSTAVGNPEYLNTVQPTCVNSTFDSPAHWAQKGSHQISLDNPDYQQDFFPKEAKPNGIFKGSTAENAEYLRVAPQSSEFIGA
Compound,IC50 (MDBK line; [4]) [µM],ICW Avg (EGFR),ICW 1 (EGFR),ICW 2 (EGFR),"IC50 [1, 5] [µM]",MTT Assay IC50(A431/MDBK): ratio in parentheses [1],other results
Cc1cc(Cl)ccc1OCC(=O)NC(=S)Nc1ccc(S(=O)(=O)N2CCCCC2)cc1 [AD4-11402],–,–,–,–,–,–,"IC50 (MDBK line; [2]): 17.4 µM; ICW Screen (ICW Inhibition) (EGFR): 33.635; IC50 [1, 3]: 11.8 µM"
CCOc1ccc2nc(Nc3ncc4c(n3)CC(c3ccco3)CC4=O)nc(C)c2c1 (stereo not shown) [11674 + TFA],35.5,25.04,31.91,18.16,20.2,1.76,–
Cc1nc(Nc2nc(CCC(C)C)cc(=O)[nH]2)nc2ccccc12 [compound 11792],13.6,30.56,28.62,32.50,5.36,2.53,–
COc1cccc2c(C)nc(Nc3nc(-c4ccc(F)cc4)cc(=O)[nH]3)nc12 [compound 12778],5.34,37.56,31.05,44.08,4.66,1.15,–
CCCCCc1c(C)nc(Nc2nc(C)c3cc(CC)ccc3n2)[nH]c1=O [12226 + TFA],49,38.74,42.24,35.23,42.5,1.15,–
Cc1cccc(NC(=S)Nc2ccc(S(=O)(=O)Nc3cc(Cl)cc(Cl)c3)cc2)c1 [AD4-12472],–,–,–,–,–,–,"IC50 (MDBK line; [6]): 5.42 µM; ICW assay (EGFR): 64.2647; IC50 [1, 7]: 6.23 µM"
CCOc1cccc2c(C)nc(Nc3nc(C)c(C)c(=O)[nH]3)nc12 [12735 + TFA],15.3,64.72,69.46,59.98,17.9,0.85,–
COc1cc(NS(=O)(=O)c2ccc(NC(=S)NC(=O)/C=C/c3ccc(C)cc3)cc2)nc(OC)n1 [AD4-11874],–,–,–,–,–,–,"IC50 (MDBK line; [2]): 39 µM; ICW Screen (ICW Inhibition) (EGFR): 32.474; IC50 [1, 3]: 35 µM"
O=C(COc1ccc(Cl)cc1Cl)NC(=S)Nc1ccc(S(=O)(=O)NC2CCCCC2)cc1 [AD4-12075],–,–,–,–,–,–,"IC50 (MDBK line; [2]): 40.1 µM; ICW Screen (ICW Inhibition) (EGFR): 25.956; IC50 [1, 3]: 19.2 µM"
CCN(c1ccccc1)S(=O)(=O)c1ccc(NC(=S)Nc2ccccc2)cc1 [AD4-11430],–,–,–,–,–,–,"IC50 (MDBK line; Table 10, second of x/y(ratio): MDBK, three day treatment, unit not printed (doses in μM), read-out: MTT assay (second value)): 16.8 µM; ICW assay (EGFR): 27.1482; IC50 [1, 7]: 19.8 µM"
O=S(=O)(Nc1ccc(Cl)c(Cl)c1)c1ccc(NC(=S)Nc2cccc(F)c2)cc1 [AD4-12431],–,–,–,–,–,–,"IC50 (MDBK line; [6]): 5.57 µM; ICW assay (EGFR): 26.7815; IC50 [1, 7]: 6.4 µM"
Cc1ccc2nc(Nc3nc(CSc4nnc(C)s4)cc(=O)[nH]3)nc(C)c2c1 [compound 11450],6.83,50.68,53.35,48.02,6.98,–,–
Cc1cc(C)cc(NC(=S)Nc2ccc(S(=O)(=O)Nc3ccc(Cl)cc3)cc2)c1 [AD4-12512],–,–,–,–,–,–,"IC50 (MDBK line; [6]): 5.83 µM; ICW assay (EGFR): 28.9126; IC50 [1, 7]: 6.4 µM"
O=c1cc(CN2CCN(Cc3ccccc3)CC2)c2cc3c(cc2o1)OCO3 [AD4-10639],–,–,–,–,–,–,"MTT Screen (second value) (MDBK line; Table 11, second of x/y(ratio): MDBK, unit not printed (doses in μM)): non-convergent; ICW Screen (EGFR): 43.695; IC50 ([1]; Homo sapiens, A-431, 72 h, Table 11, first of x/y(ratio): A431, unit not printed (doses in μM), read-out: MTT Screen (first value)): 42.6 µM"
COc1cccc2c(C)nc(Nc3nc(C(F)(F)F)cc(=O)[nH]3)nc12 [compound 11758],576,47.78,53.63,41.93,53.8,–,–
Cc1ccc2nc(Nc3nc(CCC(C)C)cc(=O)[nH]3)nc(C)c2c1 [11795 + TFA],12.9,33.52,35.23,31.81,26.8,0.48,–
COc1ccccc1/C=C/C(=O)NC(=S)Nc1ccc(S(=O)(=O)Nc2nc(C)cc(C)n2)cc1 [AD4-12148],–,–,–,–,–,–,"IC50 (MDBK line; [2]): 39.2 µM; ICW Screen (ICW Inhibition) (EGFR): 51.845; IC50 [1, 3]: 42.8 µM"
CCCc1cc(=O)[nH]c(Nc2nc(C)c3ccc(C)cc3n2)n1 [compound 12655],–,31.68,30.00,33.36,–,0.68,"IC50 (MDBK line; [8]): 7.89 µM; IC50 [1, 9]: 11.6 µM"
Cc1ccc2nc(Nc3nc(C)cc(-c4ccccc4)n3)nc(C)c2c1 [12689 + TFA],43.6,30.58,44.07,17.08,44.1,0.99,–
COc1ccc(NC(=S)Nc2ccc(S(=O)(=O)Nc3c(C)cc(C)cc3C)cc2)cc1OC [AD4-11428],–,–,–,–,–,–,"IC50 (MDBK line; [6]): 15.5 µM; ICW assay (EGFR): 29.8673; IC50 [1, 7]: 20.8 µM"
Cc1c(O)ccc2c(CN3CCN(Cc4ccc5c(c4)OCO5)CC3)cc(=O)oc12 [AD4-10637],–,–,–,–,–,–,"IC50 (MDBK line; Bos taurus, MDBK, Table 11, second of x/y(ratio): MDBK, unit not printed (doses in μM), read-out: MTT Screen (second value)): 41.3 µM; ICW Screen (EGFR): 30.057; IC50 ([1]; Homo sapiens, A-431, Table 11, first of x/y(ratio): A431, unit not printed (doses in μM), read-out: MTT Screen (first value)): 20.8 µM"
Cc1cc(C)cc(NC(=S)Nc2ccc(S(=O)(=O)Nc3cc(Cl)cc(Cl)c3)cc2)c1 [AD4-12461],–,–,–,–,–,–,"IC50 (MDBK line; [6]): 5.91 µM; ICW assay (EGFR): 53.1391; IC50 [1, 7]: 4.06 µM"
CCOc1ccc(NC(=S)Nc2ccc(S(=O)(=O)Nc3cc(Cl)cc(Cl)c3)cc2)cc1 [AD4-12529],–,–,–,–,–,–,"IC50 (MDBK line; [6]): 6.47 µM; ICW assay (EGFR): 63.9249; IC50 [1, 7]: 6.35 µM"
COc1ccc(/C=C/C(=O)NC(=S)Nc2ccc(S(=O)(=O)Nc3nc(C)cc(C)n3)cc2)cc1OC [AD4-11883],–,–,–,–,–,–,"MTT Screen, second value of cell (MDBK line; second value of 'a/b (c)', taken as MDBK cells): non- conver- gent; ICW Screen (ICW Inhibition) (EGFR): 83.13; IC50 [1, 3]: 19.5 µM"
CCCc1c(C)nc(Nc2nc(C)c3cc(C)cc(C)c3n2)[nH]c1=O [compound 12736],–,43.43,32.35,54.51,–,1.38,"IC50 (MDBK line; [8]): 9.82 µM; IC50 [1, 9]: 7.14 µM"
CCc1c(C)[nH]c(Nc2nc(C)c3cc(C)c(C)cc3n2)nc1=O [11809 + TFA],10.9,32.72,31.42,34.02,39.3,0.28,–
Cc1cc(C)cc(NS(=O)(=O)c2ccc(NC(=S)NC(=O)CCc3ccccc3)cc2)c1 [AD4-12139],–,–,–,–,–,–,"IC50 (MDBK line; [2]): 5.3 µM; ICW Screen (ICW Inhibition) (EGFR): 41.23; IC50 [1, 3]: 18.6 µM"
